According to patent US9914908B2, “Method of introducing a toxin or dye into mammalian pluripotent cells using rBC2LCN” (National Institute of Advanced Industrial Science and …, priority 2013, dated 2018):

Legend:
Conditions in all cases: read-out: dissociation constant (Kd)
[1] = target: T1, rBC2LCN-ETA fusion protein, rBC2LCN-(GSGGG)2-ETA (Burkholderia cenocepacia rBC2LCN, SEQ ID NO: 1, fused through spacer GSGGG, SEQ ID NO: 3, to cell-killing domain of Pseudomonas aeruginosa exotoxin A, SEQ ID NO: 2) (Burkholderia cenocepacia, UniProt B4EH86); experiment: Binding affinity of rBC2LCN-ETA fusion protein to sugar chain ligands by frontal affinity chromatography
T1 construct: E. coli
Text: (§1) The binding affinities of rBC2LCN-ETA and wild-type rBC2LCN to “Fucα1-2Galβ1-3GlcNAc (H type 1)” and “Fucα1-2Galβ1-3GalNAc (H type 3)” as sugar chain ligands for rBC2LCN were examined by frontal affinity chromatography (Non Patent Literature 8). The results are shown below (Table 1).

[2] = target: T2, rBC2LCN (recombinant BC2LCN lectin, N-terminal domain of BC2L-C protein, Burkholderia cenocepacia), wild-type, SEQ ID NO: 1 (Burkholderia cenocepacia, UniProt B4EH86); experiment: Binding affinity of wild-type rBC2LCN to sugar chain ligands by frontal affinity chromatography
T2 sequence (B4EH86 1-156): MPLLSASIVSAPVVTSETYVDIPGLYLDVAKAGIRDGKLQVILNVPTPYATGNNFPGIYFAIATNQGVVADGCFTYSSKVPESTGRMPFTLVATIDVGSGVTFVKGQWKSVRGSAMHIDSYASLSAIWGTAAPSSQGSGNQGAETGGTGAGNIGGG
Text: as §1

[3] = target: T3, rBC2LCN-ETA fusion protein, rBC2LCN-(GSGGG)2-ETA (Burkholderia cenocepacia rBC2LCN, SEQ ID NO: 1, fused through spacer GSGGG, SEQ ID NO: 3, to cell-killing doma (Burkholderia cenocepacia, UniProt B4EH86)); experiment: Binding affinity of rBC2LCN-ETA fusion protein to sugar chain ligands by frontal affinity chromatography; set-up: species or system Burkholderia cenocepacia / Pseudomonas aeruginosa
T3 construct: E. coli
Text: as §1

Compound	Kd [1] [µM]	Kd [2] [µM]	Kd [3] [µM]
CC(=O)N[C@H]1[C@H](Oc2ccc([N+](=O)[O-])cc2)O[C@H](CO)[C@@H](O)[C@@H]1O[C@@H]1O[C@H](CO)[C@H](O)[C@H](O)[C@H]1O[C@@H]1O[C@@H](C)[C@@H](O)[C@@H](O)[C@@H]1O [H type1-pNP]	8.3	9.9	–
CC(=O)N[C@H]1[C@@H](Oc2ccc([N+](=O)[O-])cc2)O[C@H](CO)[C@H](O)[C@@H]1O[C@@H]1O[C@H](CO)[C@H](O)[C@H](O)[C@H]1O[C@@H]1O[C@@H](C)[C@@H](O)[C@@H](O)[C@@H]1O [H type 3, Fucα1-2Galβ1-3GalNAc]	–	25.4	32.3
CC(=O)N[C@H]1[C@@H](Oc2ccc([N+](=O)[O-])cc2)O[C@H](CO)[C@H](O)[C@@H]1O[C@@H]1O[C@H](CO)[C@H](O)[C@H](O)[C@H]1O[C@@H]1O[C@@H](C)[C@@H](O)[C@@H](O)[C@@H]1O [H type3-pNP]	–	32.3	25.4
